Twelve compounds from patent publication US5677297A, “Benzazepine-, benzoxazepine- and benzothiazepine-n-acetic acid derivatives, process for their preparation and pharmaceutical compositions containing them” (Solvay Pharmaceuticals GmbH, priority 1995, dated 1997) can be followed below.

The target of data set [1] is neutral endopeptidase (NEP), purified NEP (E.C.3.4.24.11) (Homo sapiens, UniProt P08473). Nature of the data set: In vitro investigation of the NEP-inhibitory effect (hydrolytic degradation of met-enkephalin). Format: biochemical. To be noted: substrate met-enkephalin, 37° C., pH 7.4. The procedure: 2. In vitro investigation of the NEP-inhibitory effect of the substances and determination of the affinity of the substance molecules for the enzyme molecule. […] The Ki (inhibitor constant) of each substance was determined as a measure of its inhibitory activity. The Ki of a test substance with enzyme-inhibiting activity is the dissociation constant for the enzyme/test substance complex or the (enzyme/substrate)--test substance complex and has units of concentration.
Sequence of neutral endopeptidase (NEP), purified NEP (E.C.3.4.24.11) (P08473 whole entry): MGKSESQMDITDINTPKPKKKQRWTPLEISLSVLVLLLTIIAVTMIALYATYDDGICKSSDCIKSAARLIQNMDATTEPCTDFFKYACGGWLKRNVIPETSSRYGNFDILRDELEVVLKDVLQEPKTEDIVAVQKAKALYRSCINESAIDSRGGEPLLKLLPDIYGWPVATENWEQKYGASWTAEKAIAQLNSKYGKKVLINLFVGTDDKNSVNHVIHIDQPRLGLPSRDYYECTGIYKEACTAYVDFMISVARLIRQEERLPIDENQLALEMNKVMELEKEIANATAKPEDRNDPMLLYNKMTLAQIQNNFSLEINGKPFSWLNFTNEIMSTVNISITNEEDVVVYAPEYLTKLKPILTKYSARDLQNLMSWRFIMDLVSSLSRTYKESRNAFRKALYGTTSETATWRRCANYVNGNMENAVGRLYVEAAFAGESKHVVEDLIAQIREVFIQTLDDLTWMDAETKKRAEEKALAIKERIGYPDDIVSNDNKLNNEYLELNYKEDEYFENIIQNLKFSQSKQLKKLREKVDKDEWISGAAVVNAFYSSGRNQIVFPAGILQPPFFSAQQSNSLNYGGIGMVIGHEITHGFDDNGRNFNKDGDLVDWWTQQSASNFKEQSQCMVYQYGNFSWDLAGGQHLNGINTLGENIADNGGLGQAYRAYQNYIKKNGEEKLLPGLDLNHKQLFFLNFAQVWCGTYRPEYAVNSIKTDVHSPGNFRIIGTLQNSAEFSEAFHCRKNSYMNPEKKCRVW
To carry out the test, respective 100 μl samples of various incubation solutions containing 10 ng of purified NEP (E.C.3.4.24.11) and in each case different amounts of test substance and of substrate (met-enkephalin)and 50 mM tris buffer (=tris(hydroxymethyl)aminomethane/HCl, pH 7.4) were prepared.
For each test substance, 24 different incubation solutions were prepared with 3 different test substance concentrations respectively combined with met-enkephalin contents of 2, 5, 7, 10, 12, 15, 40 and 100 μm.
In each test, two types of control incubation solutions were also processed, on the one hand enzyme controls which contain no test substance, and on the other hand substrate controls which contain neither enzyme nor test substance.
The incubation solutions were incubated in a shaking water bath at 37° C. for 45 minutes. The enzyme reaction was started after 15 minutes by adding the substrate (metenkephalin) and was stopped at the end of the incubation time by heating at 95° C. for 5 minutes. The stopped incubation solution was then centrifuged at 12,000×g for 3 minutes, and the concentrations of unreacted substrate and of hydrolysis products formed by the enzymatic reaction were determined in the supernatant. For this purpose, samples of each of the respective supernatants were fractionated by HPLC (high-pressure liquid chromatography) on hydrophobized silica gel, and the products of the enzymatic reaction and unreacted substrate were determined by photometry at a wavelength of 205 nm. The HPLC separation was carried out using a column (4.6×250 mm) which contains Encapharm™ 100 RP18 having an average particle size of 5 μm as reversed phase separation material. The solvent flow rate was 1.4 ml/min, and the column was warmed to 40° C. Mobile phase A was 5 mM H3 PO4, pH 2.5, and mobile phase B was acetonitrile +1% 5 mM H3 PO4, pH 2.5.
The Ki for each test substance was calculated in a known manner from the concentrations of hydrolysis products and unreacted substrate measured in the various samples. […] The example numbers indicated in Table B refer to the following preparation examples.

In data set [2] the target is T1, endothelin-converting enzyme (ECE) (Homo sapiens, UniProt P42892).
T1 construct: expressed in transfected cells; host or cells: CHO cells (Chinese hamster ovary), membrane fraction
T1 sequence (P42892 1-770): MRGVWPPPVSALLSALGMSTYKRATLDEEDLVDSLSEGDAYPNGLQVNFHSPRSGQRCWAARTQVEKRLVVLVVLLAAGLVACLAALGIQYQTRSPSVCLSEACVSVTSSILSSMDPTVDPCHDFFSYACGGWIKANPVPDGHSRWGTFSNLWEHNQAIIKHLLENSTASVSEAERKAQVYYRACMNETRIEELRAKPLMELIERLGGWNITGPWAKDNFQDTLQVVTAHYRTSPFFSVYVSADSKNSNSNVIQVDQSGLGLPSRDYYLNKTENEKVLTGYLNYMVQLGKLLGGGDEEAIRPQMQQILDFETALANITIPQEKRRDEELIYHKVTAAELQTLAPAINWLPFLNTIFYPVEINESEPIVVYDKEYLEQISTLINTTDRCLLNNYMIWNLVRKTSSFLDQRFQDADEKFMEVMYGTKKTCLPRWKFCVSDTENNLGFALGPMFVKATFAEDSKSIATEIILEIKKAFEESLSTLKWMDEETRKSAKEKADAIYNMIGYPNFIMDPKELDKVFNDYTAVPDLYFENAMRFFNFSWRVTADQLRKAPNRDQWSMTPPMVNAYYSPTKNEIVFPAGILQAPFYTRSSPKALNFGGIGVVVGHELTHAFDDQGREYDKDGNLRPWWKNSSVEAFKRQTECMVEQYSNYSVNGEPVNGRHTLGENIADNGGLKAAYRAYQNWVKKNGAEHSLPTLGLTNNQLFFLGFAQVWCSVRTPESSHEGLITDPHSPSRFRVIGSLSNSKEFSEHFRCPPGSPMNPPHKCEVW
As to the kind of experiment: In vitro investigation of the ECE-inhibitory effect (recombinant human ECE in CHO cell membrane fraction). Format: biochemical. To be noted: 24 μM synthetic peptide substrate, pH 7.0, 37° C., 60 min. How it is done: 3. In vitro investigations of the ECE-inhibitory effect of the substances.
The IC50 of the substances was determined as a measure of their inhibitory activity. The IC50 of a test substance with enzyme-inhibiting activity is the concentration of the test substance at which 50% of the enzymatic activity of ECE is inhibited.
Preparation of the ECE-containing endothelial cell membrane fraction.
Egg cells from the Chinese hamster (Chinese hamster ovary cells, hereinafter CHO cells) in which there was recombinant expression of human ECE [see Schmidt et al., Federation of European Biochemical Societies Letters 356 238-43 (1994)] were lysed, and the cell membranes were removed by centrifugation at 10,000×g for 10 min. The cell membranes were washed by resuspension and repeated centrifugation three times. The ECE-containing cell membrane fraction was resuspended in 100 mM tris/HCl buffer (tris(hydroxymethyl)aminomethane/HCl, pH 7.0, containing 250 mM NaCl) and stored frozen at -70° C. before the enzyme test.
To carry out the test, respective 100 μl samples of various incubation solutions each containing 5 μg protein from an ECE-containing preparation of endothelial cell membranes and different amounts of test substance and 24 μM substrate (synthetic peptide: H2 N-Asp-Ile-Ala-Trp-Phe-Asn-Thr-Pro-Glu-His-Val-Val-Pro-Tyr-Gly-Leu-Gly-COOH) (SEQ ID NO:1) and 100 mM tris buffer (tris(hydroxymethyl)aminomethane/HCl, pH 7.0, containing 250 mM sodium chloride) were prepared. […]
The incubation solutions were preincubated at 37° C. for 15 min before the substrate was added. […] The hydrolysis products H2N-Asp-Ile-Ala-Trp-COOH (SEQ ID NO:2) and H2 N-Phe-Asn-Thr-Pro-Glu-His-Val-Val-Pro-Tyr-Gly-Leu-Gly-COOH (SEQ ID NO:3) formed from the substrate by the enzymatic reaction were determined with the aid of high-pressure liquid chromatography (HPLC). […] The IC50 was calculated for each test substance in a known manner from the concentrations of hydrolysis products measured in the various samples.

On the set-up of data set [3]: species or system mouse (male). To be noted: mouse, in vivo, po, 4320 min. How it is done:
1. Determination of the minimum toxic dose
Male mice weighing 20-25 g received oral administrations of maximum doses of 300 mg/kg of the test substance. The animals were carefully observed for signs of toxicity for 3 hours. In addition, all signs and deaths over a period of 72 hours after administration were recorded. Accompanying signs were likewise observed and recorded. If death or signs of severe toxicity were observed, further mice were given increasingly lower doses until signs of toxicity no longer appeard. The lowest dose which caused death or signs of severe toxicity is indicated in following Table A as the minimum toxic dose. The example numbers listed in Table A refer to the following preparation examples.

Data set [4] is described as follows: In vivo determination of the effect on diuresis/natriuresis in volume-loaded rats. To be noted: volume loading 120 minutes after administration, urine collected over 60 min. Set-up: species or system rat (male Wistar). How it is done:
4. In vivo determination of the effect of the substances on diuresis/natriuresis in volume-loaded rats.
The in vivo activity was investigated in volume-loaded rats. In this experiment a high cardiac filling pressure was caused by infusion of isotonic sodium chloride solution, which results in ANP release and thus diuresis/natriuresis.
The tests are carried out with male Wistar rats having a body weight of 200-400 g. Under neuroleptanalgesia (fentanyl; Hypnorm™, manufactured by Janssen), a catheter was placed in the right femoral vein for the baseline infusion and the volume loading with isotonic sodium chloride solution. After the abdominal cavity had been opened, a second catheter was inserted into the bladder, and the urethra was tied off so that it was possible to measure the urine volume, natriuresis and kaliuresis.
The abdominal cavity was closed again and the animals received a continuous infusion with sodium chloride solution (0.5 ml/100 g body weight) throughout the 2 hours of the test. After an equilibration period of 30 minutes, in a preliminary phase before the test substance was given, urine samples were collected three times over a period of 10 minutes in each case. These preliminary values ("predrug" values) were determined in order to check that there was a continuous flow of urine in the test animals.
The solutions containing test substances were then administered intravenously (bolus injection into the femoral vein) or orally (by gavage) to groups of 10 rats each. With both modes of administration, in each case one control group of animals received only placebo solutions which contained no active substance. 5 Minutes after i.v. administration or 120 minutes after oral administration of the substances, the rats were loaded with an increased volume of sodium chloride solution i.v. (2 ml/100 g body weight in 2 minutes) and the urine was collected over a period of 60 min. The amounts of urine produced in this period were determined, and the sodium and potassium contents therein were measured. The increase in excretion which took place under volume loading by comparison with the preliminary values was deduced from the resulting amounts of urine.
Furthermore, the amounts of sodium and potassium excreted under volume loading after administration of test substance are also indicated as a percentage of the amounts of sodium and potassium excreted under volume loading after placebo administration.

The structures appear in SMILES notation. A value given as a limit tells only on which side of the number the result lay.

What is called Ki is the equilibrium dissociation constant of an inhibitor or competing ligand from its target. A lower Ki goes with higher affinity. In turn, `COCCOC[C@H](CC1(C(=O)N[C@H]2CCc3ccccc3N(CC(=O)O)C2=O)CCCC1)C(=O)O` [Example 22] registered a Ki in data set [1] of 2.15 nM.

One may read the IC50 as the concentration needed to halve the response being measured. `O=C(O)CN1C(=O)[C@@H](NC(=O)C2(C[C@@H](CCc3cccc4ccccc34)C(=O)O)CCCC2)CCc2ccccc21` [Example 39]: the IC50 in data set [2] was 520 nM.

`O=C(O)CN1C(=O)[C@@H](NC(=O)C2(C[C@@H](CCc3ccccc3)C(=O)O)CCCC2)CCc2ccccc21` [Example 37]: the Minimum toxic dose in data set [3] is recorded as greater than 300 mg/kg.

As to `COCCOC[C@H](CC1(C(=O)N[C@H]2COc3ccccc3N(CC(=O)O)C2=O)CCCC1)C(=O)O` [Example 11, (3S,2'S)-3-{1-[2'-Carboxy-3'-(2-methoxyethoxy)propyl]cyclopentane-1-carbonylamino}-4-oxo-3,4-dihydro-1,5-benzoxazepine-5(2H)-acetic acid], the Ki in data set [1] came out at 2.55 nM.

Take `O=C(O)CN1C(=O)[C@@H](NC(=O)C2(CC(Cc3ccccc3)C(=O)O)CCCC2)CCc2ccccc21` (stereo partly drawn) [Example 29]: the inhibition constant Ki in data set [1] was 1.08 nM.

`O=C(O)CN1C(=O)C(NC(=O)C2(CC(CCc3cccc4ccccc34)C(=O)O)CCCC2)CCc2ccccc21` (stereo not drawn) [Example 24] showed a Minimum toxic dose in data set [3] greater than 300 mg/kg. The same compound displayed a Ki in data set [1] of 1 nM.

Consider `CCOC(=O)[C@H](CCc1ccccc1)CC1(C(=O)N[C@H]2CCc3ccccc3N(CC(=O)O)C2=O)CCCC1` [Example 4, (3S,2'R)-3-{1-[2'-(Ethoxycarbonyl)-4'-phenylbutyl]cyclopentane-1-carbonylamino}-2,3,4,5-tetrahydro-2-oxo-1H-1-benzazepine-1-acetic acid], for which the “Increase in the excretion of urine under volume loading after administration of test substance as % based on the increase after placebo administration” value in data set [4] (15 mg/kg p.o.) stood at 196.5%; in data set [4] (51 mg/kg p.o.) it was 271%.

As to `O=C(O)CN1C(=O)C(NC(=O)C2(CC(Cc3ccccc3)C(=O)O)CCCC2)CCc2ccccc21` (stereo not drawn) [Example 27], the Minimum toxic dose in data set [3] is on record as greater than 300 mg/kg.

In the case of `O=C(O)CN1C(=O)[C@@H](NC(=O)C2(CC(CCOc3ccc(F)cc3)C(=O)O)CCCC2)CSc2ccccc21` (stereo partly drawn) [Example 13, (3R)-3-{1-[2'-Carboxy-4'-(4-fluorophenoxy)butyl]cyclopentane-1-carbonylamino}-4-oxo-3,4-dihydro-1,5-benzothiazepine-5(2H)-acetic acid], in data set [1], the Ki came to 0.76 nM.

`O=C(O)CN1C(=O)C(NC(=O)C2(CC(CCOc3ccc(F)cc3)C(=O)O)CCCC2)CCc2ccccc21` (stereo not drawn) [Example 26] gave a Ki in data set [1] of 1.22 nM.

The compound `O=C(O)CN1C(=O)C(NC(=O)C2(CC(CCc3ccccc3)C(=O)O)CCCC2)CCc2ccccc21` (stereo not drawn) [Example 6, 3-[1-(2'-Carboxy-4'-phenylbutyl)cyclopentane-1-carbonylamino]-2,3,4,5-tetrahydro-2-oxo-1H-1-benzazepine-1-acetic acid] gave a Minimum toxic dose in data set [3] greater than 300 mg/kg. In data set [1], the affinity corresponds to a Ki of 0.67 nM.

With `O=C(O)CN1C(=O)C(NC(=O)C2(CC(Cc3cccc4ccccc34)C(=O)O)CCCC2)CCc2ccccc21` (stereo not drawn) [Example 38], the IC50 in data set [2] was 2200 nM.
